Source: patent US12048737B2, “Use of a vaccine targeting a cryptic tert epitope, for treating cancer in a HLA-A*0201-positive patient having a non-immunogenic tumor expressing tert” (KRIPTIC PHARMACEUTICALS LIMITED, priority 2017, dated 2024)

Tested on: NSCLC tumors expressing TElomerase Reverse Transcriptase (TERT)
Test: Vx-001-201 randomized double blind phase IIb study: clinical outcome (OS, TTF, 12 months survival)
Assay type: in vivo, human
From the text: The Vx-001-201 study is a randomized, double blind multicenter study done in 70 centers in France, Germany, Spain, Italy, Greece, Poland, Romania and Czech Republic. Key eligibility criteria were a) non small cell lung cancer (NSCLC), b) stage IV or recurrent stage I-III, c) disease control after platinum based first line chemotherapy according to RECIST 1.1 criteria, d) HLA-A*0201 positivity, e) tumors expressing TElomerase Reverse Transcriptase (TERT), f) ECOG 0 or 1 g) absence of brain metastasis.
• a) Principal endpoint: overall survival (OS) measured from randomization • b) Secondary endpoints: • Time to Treatment Failure (TTF) measured from randomization • OS at 12 months • c) Main exploratory objectives • Evaluation of vaccine induced specific immune response • Correlation between vaccine specific immune response and clinical response Procedures and Vaccination Protocol
Patients who fulfilled all inclusion criteria were randomized within 4 weeks after the end of first line chemotherapy.
The vaccination protocol consisted in six vaccinations at three week interval. The optimized Vx-001/TERT572Y was used in the first two vaccinations and the native Vx-001/TERT572 in the following four vaccinations. Patients who continued controlling their disease after the sixth vaccination received boost vaccination with the Vx-001/TERT572 every three months. Vaccination was stopped at disease progression (FIG. 1).
The primary and secondary endpoints were analysed in the Full Analysis Set (FAS) composed of all patients who fulfilled the five main criteria a) NSCLC, b) stage IV or recurrent stage I-III, c) disease control after first line chemotherapy, d) HLA-A*0201 positivity and e) TERT expressing tumors.
We used the Kaplan-Meier method to estimate OS and TTF in each arm and a Cox proportional hazards regression model to estimate Hazard Ratio (HR) relating OS and TTF to the treatment effect.

[1] = FAS, all patients, Vx-001 vs placebo
[2] = FAS, OR to chemotherapy (n = 87)
[3] = FAS, SD to chemotherapy (n = 103)
[4] = Vx-001 responders vs non-responders
[5] = patients with no natural immunity
[6] = patients without natural immunity, Vx-001 vs placebo
[7] = vaccinated patients, Vx-001 immune non-responders
[8] = vaccinated patients, Vx-001 immune responders
[9] = with natural immunity, assessed before 26 days after end of chemotherapy
[10] = with natural immunity, assessed before 26 days after end of chemotherapy, Vx-001 vs placebo
[11] = within Vx-001 treated (n = 80): natural immunity vs no natural immunity
[12] = without natural immunity, assessed less than 26 days after end of chemotherapy
[13] = without natural immunity, assessed less than 26 days after end of chemotherapy, Vx-001 vs placebo
[14] = without natural immunity, 1st line CARBO (n = 74)
[15] = without natural immunity, 1st line CARBO (n = 74), Vx-001 vs placebo
[16] = without natural immunity, 1st line CDDP (n = 46)
[17] = without natural immunity, 1st line CDDP (n = 46), Vx-001 vs placebo
[18] = without natural immunity, <65 years (n = 59)

Substance: Vx-001: vaccine composed of two nine amino acid peptides, TERT572 and TERT572Y, administered separately with the adjuvant Montanide ISA51 VG (chain 1 RLFFYRKSV; chain 2 YLFFYRKSV; Montanide ISA51 VG adjuvant; peptide from a human protein; optimized peptide)
- 12 months survival (FAS, all patients): 58%
- Median OS (FAS, all patients): 14.3 months
- Median TTF (FAS, all patients): 3.6 months
- HR (OS) [1]: 0.97
- HR (TTF) [1]: 0.88
- 12 months OS (FAS, 1st line CARBO (n = 119)): 58.2%
- Median survival (OS) (FAS, 1st line CARBO (n = 119)): 14.3 months
- HR (OS) (FAS, 1st line CARBO (n = 119), Vx-001 vs placebo): 1.06
- 12 months OS (FAS, 1st line CDDP (n = 69)): 59%
- Median survival (OS) (FAS, 1st line CDDP (n = 69)): 15 months
- HR (OS) (FAS, 1st line CDDP (n = 69), Vx-001 vs placebo): 0.81
- 12 months OS (FAS, <65 years (n = 92)): 57.7%
- Median survival (OS) (FAS, <65 years (n = 92)): 13.4 months
- HR (OS) (FAS, <65 years (n = 92), Vx-001 vs placebo): 1.2
- 12 months OS (FAS, >65 years (n = 98)): 59%
- Median survival (OS) (FAS, >65 years (n = 98)): 15 months
- HR (OS) (FAS, >65 years (n = 98), Vx-001 vs placebo): 0.78
- 12 months OS (FAS, Female (n = 59)): 53.3%
- Median survival (OS) (FAS, Female (n = 59)): 13.2 months
- HR (OS) (FAS, Female (n = 59), Vx-001 vs placebo): 1.52
- 12 months OS (FAS, Male (n = 131)): 61%
- Median survival (OS) (FAS, Male (n = 131)): 15 months
- HR (OS) (FAS, Male (n = 131), Vx-001 vs placebo): 0.81
- 12 months OS (FAS, NSQ (n = 118)): 55%
- Median survival (OS) (FAS, NSQ (n = 118)): 13.4 months
- HR (OS) (FAS, NSQ (n = 118), Vx-001 vs placebo): 0.88
- 12 months OS [2]: 69%
- Median survival (OS) [2]: 15.3 months
- HR (OS) (FAS, OR to chemotherapy (n = 87), Vx-001 vs placebo): 0.89
- 12 months OS [3]: 52%
- Median survival (OS) [3]: 14.3 months
- HR (OS) (FAS, SD to chemotherapy (n = 103), Vx-001 vs placebo): 0.99
- 12 months OS (FAS, SQ (n = 72)): 64%
- Median survival (OS) (FAS, SQ (n = 72)): 14.3 months
- HR (OS) (FAS, SQ (n = 72), Vx-001 vs placebo): 1.13
- HR (OS) [4]: 0.39
- HR (TTF) [4]: 0.41
- 12 months OS (patients with natural immunity): 65%
- Median TTF (patients with natural immunity): 2.9 months
- OS and 12 months survival, placebo vs Vx-001 (patients with natural immunity (FIG. 6)): no difference
- Median survival (OS) (patients with natural immunity against TERT572): 15.5 months
- 12 months OS [5]: 55%
- Median TTF [5]: 4.1 months
- Median survival (OS) (patients with no natural immunity against TERT572 (non-immunogenic tumors)): 13.2 months
- HR (OS) [6]: 0.80
- HR (TTF) [6]: 0.75
- Median OS [7]: 13.4 months
- Median TTF [7]: 3.6 months
- Median OS [8]: 21.3 months
- Median TTF [8]: 9.1 months
- Median OS [9]: 15.3 months
- Median TTF [9]: 2.2 months
- HR (OS) [10]: 1.54
- HR (TTF) [10]: 1.98
- HR (OS) [11]: 0.91
- HR (TTF) [11]: 0.83
- Median OS (without natural immunity, assessed later than 26 days after chemotherapy): 13.2 months
- HR (OS) (without natural immunity, assessed later than 26 days after chemotherapy, Vx-001 vs placebo): 0.96
- Median OS [12]: 11.7 months
- Median TTF [12]: 4.1 months
- HR (OS) [13]: 0.58
- HR (TTF) [13]: 0.62
- 12 months OS [14]: 53%
- Median TTF [14]: 3.7 months
- Median survival (OS) [14]: 13.1 months
- HR (OS) [15]: 1.03
- HR (TTF) [15]: 0.80
- 12 months OS [16]: 59%
- Median TTF [16]: 4.1 months
- Median survival (OS) [16]: 13.4 months
- HR (OS) [17]: 0.51
- HR (TTF) [17]: 0.67
- 12 months OS [18]: 53.6%
- Median TTF [18]: 3.5 months
